According to the NIST ThermoML archive (doi:10.1021/je700042z):
Values joined by “and” are separate entries in the source; they are usually repeats but may differ in a detail not shown here. Equal entries are not always repeated.

Assay: cn = amount concentration of the nth substance listed, in mol/dm3
Conditions: 298.15 K, 101 kPa, Liquid

O=[As](O)(O)O [arsenic acid] + O
binary diffusion coefficient (c1 = 0.000125): 1.5e-09 m2/s and 1.49e-09 m2/s
binary diffusion coefficient (c1 = 0.000407): 1.41e-09 m2/s
binary diffusion coefficient (c1 = 0.000837): 1.35e-09 m2/s
binary diffusion coefficient (c1 = 0.00101): 1.33e-09 m2/s and 1.32e-09 m2/s
binary diffusion coefficient (c1 = 0.00206): 1.24e-09 m2/s
binary diffusion coefficient (c1 = 0.00251): 1.21e-09 m2/s
binary diffusion coefficient (c1 = 0.00351): 1.17e-09 m2/s
binary diffusion coefficient (c1 = 0.00471): 1.13e-09 m2/s and 1.14e-09 m2/s
binary diffusion coefficient (c1 = 0.00506): 1.12e-09 m2/s
binary diffusion coefficient (c1 = 0.00701): 1.08e-09 m2/s and 1.09e-09 m2/s
binary diffusion coefficient (c1 = 0.00825): 1.08e-09 m2/s and 1.07e-09 m2/s
binary diffusion coefficient (c1 = 0.0119): 1.03e-09 m2/s and 1.04e-09 m2/s
binary diffusion coefficient (c1 = 0.014): 1.02e-09 m2/s

O=C(O)CC(=O)O [propanedioic acid] + O
binary diffusion coefficient (c1 = 0.000124): 1.67e-09 m2/s and 1.68e-09 m2/s
binary diffusion coefficient (c1 = 0.000252): 1.59e-09 m2/s and 1.61e-09 m2/s and 1.6e-09 m2/s
binary diffusion coefficient (c1 = 0.000253): 1.61e-09 m2/s and 1.6e-09 m2/s and 1.59e-09 m2/s
binary diffusion coefficient (c1 = 0.000378): 1.53e-09 m2/s and 1.52e-09 m2/s
binary diffusion coefficient (c1 = 0.000379): 1.52e-09 m2/s
binary diffusion coefficient (c1 = 0.000502): 1.49e-09 m2/s
binary diffusion coefficient (c1 = 0.000627): 1.46e-09 m2/s and 1.45e-09 m2/s
binary diffusion coefficient (c1 = 0.000751): 1.42e-09 m2/s
binary diffusion coefficient (c1 = 0.000803): 1.4e-09 m2/s
binary diffusion coefficient (c1 = 0.00138): 1.32e-09 m2/s and 1.33e-09 m2/s
binary diffusion coefficient (c1 = 0.0019): 1.27e-09 m2/s
binary diffusion coefficient (c1 = 0.0025): 1.23e-09 m2/s and 1.22e-09 m2/s
binary diffusion coefficient (c1 = 0.0035): 1.19e-09 m2/s and 1.18e-09 m2/s
binary diffusion coefficient (c1 = 0.00454): 1.16e-09 m2/s
binary diffusion coefficient (c1 = 0.0046): 1.14e-09 m2/s and 1.15e-09 m2/s and 1.16e-09 m2/s
binary diffusion coefficient (c1 = 0.00701): 1.11e-09 m2/s
binary diffusion coefficient (c1 = 0.0101): 1.08e-09 m2/s
binary diffusion coefficient (c1 = 0.0118): 1.07e-09 m2/s and 1.08e-09 m2/s
binary diffusion coefficient (c1 = 0.015): 1.06e-09 m2/s and 1.07e-09 m2/s and 1.05e-09 m2/s
binary diffusion coefficient (c1 = 0.0201): 1.03e-09 m2/s
